What was measured:
[1] = target: T1, Serine/threonine-protein kinase Nek2 (Homo sapiens) (UniProt P51955); assay: Inhibition of NEK2 (unknown origin) at 1 uM relative to control
T1 sequence (whole entry): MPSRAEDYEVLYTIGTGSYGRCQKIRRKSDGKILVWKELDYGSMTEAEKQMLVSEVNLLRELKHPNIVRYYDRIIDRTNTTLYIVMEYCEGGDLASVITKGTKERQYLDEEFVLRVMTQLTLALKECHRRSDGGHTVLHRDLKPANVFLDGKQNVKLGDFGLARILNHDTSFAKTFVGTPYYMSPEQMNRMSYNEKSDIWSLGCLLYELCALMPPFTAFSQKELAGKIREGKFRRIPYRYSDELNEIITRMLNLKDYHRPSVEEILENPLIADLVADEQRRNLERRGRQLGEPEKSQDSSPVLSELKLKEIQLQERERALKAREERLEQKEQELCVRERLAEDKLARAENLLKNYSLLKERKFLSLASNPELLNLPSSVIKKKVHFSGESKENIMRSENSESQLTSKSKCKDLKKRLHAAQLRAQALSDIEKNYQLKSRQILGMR

[2] = target: T2, Serine/threonine-protein kinase Nek10 (Homo sapiens) (UniProt Q6ZWH5); assay: Inhibition of NEK10 (unknown origin) at 1 uM relative to control
T2 sequence (whole entry): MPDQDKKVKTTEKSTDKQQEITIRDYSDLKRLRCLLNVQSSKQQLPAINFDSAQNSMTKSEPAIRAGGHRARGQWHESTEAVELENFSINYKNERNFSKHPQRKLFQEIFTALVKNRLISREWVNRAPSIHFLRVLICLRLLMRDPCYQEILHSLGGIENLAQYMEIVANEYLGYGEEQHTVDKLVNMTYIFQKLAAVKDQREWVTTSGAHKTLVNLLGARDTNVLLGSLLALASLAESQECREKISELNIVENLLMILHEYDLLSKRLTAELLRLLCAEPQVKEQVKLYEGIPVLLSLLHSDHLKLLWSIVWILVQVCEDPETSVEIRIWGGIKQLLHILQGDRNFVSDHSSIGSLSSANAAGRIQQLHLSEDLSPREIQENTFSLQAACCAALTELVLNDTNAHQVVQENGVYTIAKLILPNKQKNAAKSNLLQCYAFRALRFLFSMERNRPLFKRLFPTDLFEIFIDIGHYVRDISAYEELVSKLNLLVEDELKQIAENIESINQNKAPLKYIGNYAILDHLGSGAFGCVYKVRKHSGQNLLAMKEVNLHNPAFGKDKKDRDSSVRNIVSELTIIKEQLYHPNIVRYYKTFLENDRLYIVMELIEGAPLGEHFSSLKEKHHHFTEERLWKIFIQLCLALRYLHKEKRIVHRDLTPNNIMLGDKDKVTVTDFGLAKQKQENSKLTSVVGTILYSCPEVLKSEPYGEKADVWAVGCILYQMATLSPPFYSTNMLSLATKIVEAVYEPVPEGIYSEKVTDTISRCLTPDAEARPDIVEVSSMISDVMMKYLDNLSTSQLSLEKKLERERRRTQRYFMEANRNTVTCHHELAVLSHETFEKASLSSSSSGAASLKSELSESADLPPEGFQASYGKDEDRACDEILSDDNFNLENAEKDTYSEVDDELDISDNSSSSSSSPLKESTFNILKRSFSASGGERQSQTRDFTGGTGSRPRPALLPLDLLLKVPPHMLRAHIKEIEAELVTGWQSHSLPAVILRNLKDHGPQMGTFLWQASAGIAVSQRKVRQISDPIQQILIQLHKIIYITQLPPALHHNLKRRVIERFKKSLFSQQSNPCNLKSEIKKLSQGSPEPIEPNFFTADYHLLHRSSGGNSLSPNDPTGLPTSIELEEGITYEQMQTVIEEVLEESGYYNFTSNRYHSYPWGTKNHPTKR

[3] = target: Angiopoietin-1 receptor (Homo sapiens) (UniProt Q02763); assay: Inhibition of TIE2 (unknown origin) at 1 uM relative to control
Angiopoietin-1 receptor (Homo sapiens), sequence (Q02763 whole entry): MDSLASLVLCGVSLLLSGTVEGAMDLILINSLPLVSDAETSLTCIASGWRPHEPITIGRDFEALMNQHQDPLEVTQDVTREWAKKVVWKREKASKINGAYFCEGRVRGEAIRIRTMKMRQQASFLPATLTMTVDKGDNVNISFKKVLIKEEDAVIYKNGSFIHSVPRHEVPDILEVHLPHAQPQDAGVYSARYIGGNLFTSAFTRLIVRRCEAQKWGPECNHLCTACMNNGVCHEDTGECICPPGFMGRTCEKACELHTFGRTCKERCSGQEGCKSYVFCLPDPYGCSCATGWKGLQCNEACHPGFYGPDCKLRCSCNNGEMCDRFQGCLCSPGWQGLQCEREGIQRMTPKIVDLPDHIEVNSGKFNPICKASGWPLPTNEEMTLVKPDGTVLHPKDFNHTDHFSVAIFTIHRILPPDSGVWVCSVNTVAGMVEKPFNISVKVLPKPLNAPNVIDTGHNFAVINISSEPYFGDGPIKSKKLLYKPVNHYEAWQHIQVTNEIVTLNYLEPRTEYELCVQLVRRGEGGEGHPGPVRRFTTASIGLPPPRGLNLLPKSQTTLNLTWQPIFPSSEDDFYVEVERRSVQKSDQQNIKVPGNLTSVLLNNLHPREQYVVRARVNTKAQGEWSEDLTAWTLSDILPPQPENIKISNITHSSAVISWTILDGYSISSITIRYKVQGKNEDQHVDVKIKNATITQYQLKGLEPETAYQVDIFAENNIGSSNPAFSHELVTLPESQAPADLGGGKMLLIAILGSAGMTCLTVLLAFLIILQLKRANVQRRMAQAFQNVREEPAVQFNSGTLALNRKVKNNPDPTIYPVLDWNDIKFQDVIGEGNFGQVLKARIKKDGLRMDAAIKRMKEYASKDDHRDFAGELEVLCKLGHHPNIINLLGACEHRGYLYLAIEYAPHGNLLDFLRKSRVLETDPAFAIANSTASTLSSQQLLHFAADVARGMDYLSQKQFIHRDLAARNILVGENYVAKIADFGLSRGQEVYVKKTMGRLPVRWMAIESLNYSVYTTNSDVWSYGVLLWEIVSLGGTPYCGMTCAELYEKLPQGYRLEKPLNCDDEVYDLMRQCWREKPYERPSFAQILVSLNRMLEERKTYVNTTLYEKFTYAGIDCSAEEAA

[4] = target: T3, Cytoplasmic tyrosine-protein kinase BMX (Homo sapiens) (UniProt P51813); assay: Inhibition of BMX (unknown origin) at 1 uM relative to control
T3 sequence (whole entry): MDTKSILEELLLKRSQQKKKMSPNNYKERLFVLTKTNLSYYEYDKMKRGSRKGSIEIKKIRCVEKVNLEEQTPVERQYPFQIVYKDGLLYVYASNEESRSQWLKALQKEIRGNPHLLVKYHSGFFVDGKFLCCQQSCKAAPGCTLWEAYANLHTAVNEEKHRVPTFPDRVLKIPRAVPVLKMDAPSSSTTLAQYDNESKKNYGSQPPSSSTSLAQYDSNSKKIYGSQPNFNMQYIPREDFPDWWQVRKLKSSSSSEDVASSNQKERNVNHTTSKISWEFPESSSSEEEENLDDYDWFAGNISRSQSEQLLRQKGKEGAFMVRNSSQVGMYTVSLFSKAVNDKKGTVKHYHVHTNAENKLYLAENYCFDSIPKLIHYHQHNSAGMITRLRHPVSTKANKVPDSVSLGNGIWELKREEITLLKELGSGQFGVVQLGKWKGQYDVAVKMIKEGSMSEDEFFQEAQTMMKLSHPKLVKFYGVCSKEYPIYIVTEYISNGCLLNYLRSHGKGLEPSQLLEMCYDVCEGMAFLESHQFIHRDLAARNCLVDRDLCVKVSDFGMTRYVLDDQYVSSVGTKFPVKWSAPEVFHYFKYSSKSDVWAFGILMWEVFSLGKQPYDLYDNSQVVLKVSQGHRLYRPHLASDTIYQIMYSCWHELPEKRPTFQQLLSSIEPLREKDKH

[5] = target: Fibroblast growth factor receptor 3 (Homo sapiens) (UniProt P22607); assay: Inhibition of FGFR3 (unknown origin) at 1 uM relative to control
Fibroblast growth factor receptor 3 (Homo sapiens), sequence (P22607 23-806 limits assumed): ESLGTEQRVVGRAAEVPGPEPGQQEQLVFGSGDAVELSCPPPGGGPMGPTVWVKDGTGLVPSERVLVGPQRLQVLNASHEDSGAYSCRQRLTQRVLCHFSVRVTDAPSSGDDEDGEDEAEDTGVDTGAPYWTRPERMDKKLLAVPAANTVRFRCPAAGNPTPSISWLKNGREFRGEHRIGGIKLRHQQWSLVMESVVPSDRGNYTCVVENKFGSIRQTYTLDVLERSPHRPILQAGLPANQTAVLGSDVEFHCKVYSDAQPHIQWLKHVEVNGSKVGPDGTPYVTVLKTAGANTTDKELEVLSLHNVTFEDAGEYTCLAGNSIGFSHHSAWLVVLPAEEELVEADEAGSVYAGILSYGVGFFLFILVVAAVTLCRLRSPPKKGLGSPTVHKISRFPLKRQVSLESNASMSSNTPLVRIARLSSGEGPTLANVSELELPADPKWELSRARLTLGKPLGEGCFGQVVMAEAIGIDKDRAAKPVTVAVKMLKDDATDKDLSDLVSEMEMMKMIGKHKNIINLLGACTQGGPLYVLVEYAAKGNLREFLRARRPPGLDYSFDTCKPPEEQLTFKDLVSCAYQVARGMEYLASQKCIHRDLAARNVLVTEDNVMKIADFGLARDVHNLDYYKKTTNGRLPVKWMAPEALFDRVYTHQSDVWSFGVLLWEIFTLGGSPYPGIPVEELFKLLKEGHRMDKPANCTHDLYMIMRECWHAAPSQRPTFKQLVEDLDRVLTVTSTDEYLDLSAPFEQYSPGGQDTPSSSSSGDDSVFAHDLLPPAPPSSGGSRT

[6] = target: T4, Mitogen-activated protein kinase kinase kinase 19 (Homo sapiens) (UniProt Q56UN5); assay: Inhibition of YSK4 (unknown origin) at 1 uM relative to control
T4 sequence (whole entry): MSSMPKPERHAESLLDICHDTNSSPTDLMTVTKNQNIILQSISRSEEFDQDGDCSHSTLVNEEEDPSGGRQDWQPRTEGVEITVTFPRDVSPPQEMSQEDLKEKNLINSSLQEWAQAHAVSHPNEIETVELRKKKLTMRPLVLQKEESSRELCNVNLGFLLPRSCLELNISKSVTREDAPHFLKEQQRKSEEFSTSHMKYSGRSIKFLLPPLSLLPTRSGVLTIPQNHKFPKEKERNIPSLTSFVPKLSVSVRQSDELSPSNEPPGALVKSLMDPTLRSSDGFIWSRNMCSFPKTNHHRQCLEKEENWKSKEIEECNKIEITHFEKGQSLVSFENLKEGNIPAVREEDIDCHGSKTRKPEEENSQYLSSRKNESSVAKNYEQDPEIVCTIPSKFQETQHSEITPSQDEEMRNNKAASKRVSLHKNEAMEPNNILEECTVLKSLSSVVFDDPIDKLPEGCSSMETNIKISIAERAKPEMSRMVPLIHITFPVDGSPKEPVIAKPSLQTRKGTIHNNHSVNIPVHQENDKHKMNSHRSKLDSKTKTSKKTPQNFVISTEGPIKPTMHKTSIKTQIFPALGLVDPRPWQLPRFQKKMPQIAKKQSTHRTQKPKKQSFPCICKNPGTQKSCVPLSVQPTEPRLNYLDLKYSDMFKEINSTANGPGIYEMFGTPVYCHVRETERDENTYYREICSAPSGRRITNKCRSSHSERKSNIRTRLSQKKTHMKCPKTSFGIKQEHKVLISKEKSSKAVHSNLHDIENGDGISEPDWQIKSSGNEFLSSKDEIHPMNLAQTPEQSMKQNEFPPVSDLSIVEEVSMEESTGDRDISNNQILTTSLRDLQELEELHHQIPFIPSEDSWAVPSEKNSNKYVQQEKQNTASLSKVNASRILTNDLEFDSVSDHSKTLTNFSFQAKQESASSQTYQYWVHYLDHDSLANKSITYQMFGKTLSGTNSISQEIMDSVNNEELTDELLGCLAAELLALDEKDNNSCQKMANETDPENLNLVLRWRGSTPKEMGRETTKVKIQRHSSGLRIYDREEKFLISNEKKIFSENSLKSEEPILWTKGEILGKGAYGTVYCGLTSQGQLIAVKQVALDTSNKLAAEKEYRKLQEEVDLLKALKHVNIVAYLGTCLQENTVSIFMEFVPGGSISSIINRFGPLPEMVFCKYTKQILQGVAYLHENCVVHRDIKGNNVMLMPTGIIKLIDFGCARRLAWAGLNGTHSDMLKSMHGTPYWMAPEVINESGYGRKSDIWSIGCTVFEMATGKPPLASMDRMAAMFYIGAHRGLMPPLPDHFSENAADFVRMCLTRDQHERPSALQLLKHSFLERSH

[7] = target: T5, Serine/threonine-protein kinase Nek3 (Homo sapiens) (UniProt P51956); assay: Inhibition of NEK3 (unknown origin) at 1 uM relative to control
T5 sequence (whole entry): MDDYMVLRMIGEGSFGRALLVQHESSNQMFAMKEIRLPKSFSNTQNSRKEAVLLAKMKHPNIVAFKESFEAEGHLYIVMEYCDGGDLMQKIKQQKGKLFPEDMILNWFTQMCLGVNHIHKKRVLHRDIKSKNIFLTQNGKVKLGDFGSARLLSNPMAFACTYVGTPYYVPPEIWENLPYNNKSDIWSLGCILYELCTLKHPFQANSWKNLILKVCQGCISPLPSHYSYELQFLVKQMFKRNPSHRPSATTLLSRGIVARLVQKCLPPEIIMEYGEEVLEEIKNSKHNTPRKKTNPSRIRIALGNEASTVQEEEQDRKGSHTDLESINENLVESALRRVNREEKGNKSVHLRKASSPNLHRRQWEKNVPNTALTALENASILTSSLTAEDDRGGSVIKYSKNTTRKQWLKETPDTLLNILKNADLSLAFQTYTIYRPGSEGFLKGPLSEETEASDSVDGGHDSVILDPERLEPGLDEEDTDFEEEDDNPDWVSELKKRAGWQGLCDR

[8] = target: T6, Serine/threonine-protein kinase Nek5 (Homo sapiens) (UniProt Q6P3R8); assay: Inhibition of NEK5 (unknown origin) at 1 uM relative to control
T6 sequence (whole entry): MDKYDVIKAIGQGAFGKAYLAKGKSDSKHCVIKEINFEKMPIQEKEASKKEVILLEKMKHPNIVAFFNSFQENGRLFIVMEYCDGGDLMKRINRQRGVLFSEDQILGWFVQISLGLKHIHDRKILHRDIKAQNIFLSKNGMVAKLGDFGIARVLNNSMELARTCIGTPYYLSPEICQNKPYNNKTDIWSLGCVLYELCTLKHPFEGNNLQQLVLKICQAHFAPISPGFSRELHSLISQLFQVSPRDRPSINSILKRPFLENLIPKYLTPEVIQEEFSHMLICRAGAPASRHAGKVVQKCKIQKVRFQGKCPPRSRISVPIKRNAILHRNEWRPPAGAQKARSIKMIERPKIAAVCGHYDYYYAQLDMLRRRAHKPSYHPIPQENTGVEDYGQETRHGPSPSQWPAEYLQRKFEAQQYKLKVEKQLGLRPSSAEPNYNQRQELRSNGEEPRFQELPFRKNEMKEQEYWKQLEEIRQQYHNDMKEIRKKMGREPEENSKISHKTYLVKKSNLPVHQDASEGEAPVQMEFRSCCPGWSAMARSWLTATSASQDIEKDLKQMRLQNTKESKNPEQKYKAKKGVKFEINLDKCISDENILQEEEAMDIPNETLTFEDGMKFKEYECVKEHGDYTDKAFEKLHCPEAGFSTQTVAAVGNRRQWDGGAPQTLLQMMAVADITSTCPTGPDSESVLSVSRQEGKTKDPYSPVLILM

[9] = target: Serine/threonine-protein kinase Nek6 (Homo sapiens) (UniProt Q9HC98); assay: Inhibition of NEK6 (unknown origin) at 1 uM relative to control
Serine/threonine-protein kinase Nek6 (Homo sapiens), sequence (Q9HC98 whole entry): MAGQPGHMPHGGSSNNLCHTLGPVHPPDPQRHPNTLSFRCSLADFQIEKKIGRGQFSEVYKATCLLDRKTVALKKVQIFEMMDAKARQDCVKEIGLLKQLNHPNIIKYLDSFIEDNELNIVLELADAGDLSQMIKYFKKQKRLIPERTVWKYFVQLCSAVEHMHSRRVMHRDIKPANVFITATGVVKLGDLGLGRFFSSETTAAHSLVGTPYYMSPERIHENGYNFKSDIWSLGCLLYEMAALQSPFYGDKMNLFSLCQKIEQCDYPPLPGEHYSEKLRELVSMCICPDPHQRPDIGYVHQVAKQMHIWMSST

[10] = target: Serine/threonine-protein kinase Nek7 (Homo sapiens) (UniProt Q8TDX7); assay: Inhibition of NEK7 (unknown origin) at 1 uM relative to control
Serine/threonine-protein kinase Nek7 (Homo sapiens), sequence (Q8TDX7 whole entry, looked up): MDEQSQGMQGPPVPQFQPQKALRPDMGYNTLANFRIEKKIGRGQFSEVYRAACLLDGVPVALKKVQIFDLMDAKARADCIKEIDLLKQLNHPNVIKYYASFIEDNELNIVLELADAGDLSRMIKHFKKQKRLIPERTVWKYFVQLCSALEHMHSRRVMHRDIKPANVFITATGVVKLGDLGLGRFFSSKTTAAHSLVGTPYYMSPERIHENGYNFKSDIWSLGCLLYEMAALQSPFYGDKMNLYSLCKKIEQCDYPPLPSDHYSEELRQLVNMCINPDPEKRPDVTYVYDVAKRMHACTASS

[11] = target: T7, Serine/threonine-protein kinase Nek11 (Homo sapiens) (UniProt Q8NG66); assay: Inhibition of NEK11 (unknown origin) at 1 uM relative to control
T7 sequence (whole entry): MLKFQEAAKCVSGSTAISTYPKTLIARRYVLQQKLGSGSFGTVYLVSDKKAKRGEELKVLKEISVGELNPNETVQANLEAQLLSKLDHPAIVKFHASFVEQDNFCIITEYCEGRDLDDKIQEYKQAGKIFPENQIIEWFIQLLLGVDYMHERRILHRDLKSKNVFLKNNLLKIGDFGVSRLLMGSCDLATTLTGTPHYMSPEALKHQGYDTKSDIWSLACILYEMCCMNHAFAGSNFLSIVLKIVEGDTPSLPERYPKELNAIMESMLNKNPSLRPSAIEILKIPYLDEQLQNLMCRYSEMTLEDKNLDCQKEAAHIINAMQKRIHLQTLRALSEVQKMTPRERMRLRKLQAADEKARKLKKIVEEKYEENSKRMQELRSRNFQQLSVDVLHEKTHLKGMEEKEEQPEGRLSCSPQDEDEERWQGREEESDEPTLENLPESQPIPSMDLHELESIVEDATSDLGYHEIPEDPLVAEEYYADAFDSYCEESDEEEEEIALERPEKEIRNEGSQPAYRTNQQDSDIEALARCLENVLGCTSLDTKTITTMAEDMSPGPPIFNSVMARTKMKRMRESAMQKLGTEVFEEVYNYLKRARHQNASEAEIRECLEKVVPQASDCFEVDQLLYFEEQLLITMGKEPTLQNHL

Row | inhibition [1] [%] | inhibition [2] [%] | inhibition [3] [%] | inhibition [4] [%] | inhibition [5] [%] | inhibition [6] [%] | inhibition [7] [%] | inhibition [8] [%] | inhibition [9] [%] | inhibition [10] [%] | inhibition [11] [%] | Structure (SMILES)
1 | 72 |  |  |  |  |  |  |  |  |  |  | CC[C@@H]1C(=O)N(C)c2cnc(Nc3ccc(C(=O)NC4CCN(C)CC4)cc3OC)nc2N1C1CCCC1
2 |  | 85 | 98.7 | 90.1 | 90 | 88 |  |  |  |  |  | NC(=O)c1nnc2ccccc2c1N
3 |  | 48 | 1 | 15 | 12 | 94.4 |  |  |  |  |  | Cn1cc(-c2cccc3c(N)c(C(N)=O)nnc23)cn1
4 |  | 86 | 31 | 83 | 0 | 71 |  |  |  |  |  | Cc1cc2cn[nH]c2cc1-c1cccc2c(N)c(C(N)=O)nnc12
5 | 7 | 56 |  |  |  |  | 100 | 75 | 0.3 | 1.6 | 0.2 | CC(C)(C)c1nc(-c2cccc(NS(=O)(=O)c3c(F)cccc3F)c2F)c(-c2ccnc(N)n2)s1
